Experimental data taken from patent US9302999B2, “Substituted triazoles as herbicides” (E. I. DU PONT DE NEMOURS AND COMPANY, priority 2012, dated 2016).

Legend:
Type in all cases: in vivo
[1] = system: chickweed (common chickweed, Stellaria media); assay: Test C postemergence: chickweed
How it was run: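 Seedlings are raised in pots of peat-based medium to 2–18 cm (1- to 4-leaf stage). The formulated compound is then applied postemergence. Plants stay in the greenhouse for 13 to 15 days and are rated visually against controls, where 0 means no effect and 100 complete control.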

[2] = system: velvetleaf (Abutilon theophrasti); assay: Test A pre-/postemergence: velvetleaf
How it was run: (§1)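 Injury is scored visually on a scale where 0 means no effect and 100 complete control, comparing treated with untreated plants after approximately ten greenhouse days. Both preemergence and postemergence applications are made at the same time.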

[3] = system: barnyardgrass (Echinochloa crus-galli); assay: Test B flooded paddy: barnyardgrass; details: Flood; 125 g ai/ha; applied to paddy water at 2-leaf stage; visually evaluated after 13 to 15 days
How it was run: (§2)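 Visual ratings (0 = no effect, 100 = complete control) versus untreated controls were taken 13–15 days after treatment of greenhouse plants. Treatment was added to paddy water held at 3 cm depth on 2-leaf-stage seedlings.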

[4] = system: morningglory (Ipomoea spp.); assay: Test A pre-/postemergence: morningglory
How it was run: as §1

[5] = system: barnyardgrass (Echinochloa crus-galli); assay: Test A pre-/postemergence: barnyardgrass
How it was run: as §1

corn (Zea mays) = assay: Test C pre-/postemergence: corn
How it was run: (§3)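 Visual injury scored 0–100 (100 = complete control) against untreated controls after 13–15 greenhouse days. Surfactant-containing solvent formulations applied either to soil after sowing (loam/sand) or over 1- to 4-leaf plants, 2–18 cm tall.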

soybean (Glycine max) = assay: Test C pre-/postemergence: soybean
How it was run: as §3

[6] = system: foxtail, giant (giant foxtail, Setaria faberii); assay: Test C pre-/postemergence: foxtail, giant
How it was run: as §3

kochia (Kochia scoparia) = assay: Test C pre-/postemergence: kochia; details: Postemergence
How it was run: as §3

[7] = system: ducksalad (Heteranthera limosa); assay: Test B flooded paddy: ducksalad; details: Flood; 125 g ai/ha; applied to paddy water at 2-leaf stage; visually evaluated after 13 to 15 days
How it was run: as §2

[8] = system: large crabgrass (Digitaria sanguinalis); assay: Test C pre-/postemergence: large crabgrass
How it was run: as §3

[9] = 31 g ai/ha, scale 0 to 100 (0 no effect, 100 complete control)
[10] = 62 g ai/ha, scale 0 to 100 (0 no effect, 100 complete control)
[11] = 125 g ai/ha, scale 0 to 100, 0 no effect, 100 complete control
[12] = Postemergence, 125 g ai/ha, 0 to 100 scale, 0 is no effect, 100 is complete control
[13] = Postemergence, 500 g ai/ha, 0 to 100 scale, 0 is no effect, 100 is complete control
[14] = Preemergence, 125 g ai/ha, 0 to 100 scale where 0 is no effect and 100 is complete control
[15] = Preemergence, 500 g ai/ha, 0 to 100 scale (0 no effect, 100 complete control)
[16] = Postemergence, 31 g ai/ha, scale 0 to 100 (0 no effect, 100 complete control)
[17] = Postemergence, 62 g ai/ha, scale 0 to 100 (0 no effect, 100 complete control)
[18] = Postemergence, 250 g ai/ha, scale 0 to 100
[19] = Preemergence, 31 g ai/ha, scale 0 (no effect) to 100 (complete control)
[20] = Preemergence, 62 g ai/ha, scale of 0 to 100, 0 is no effect, 100 is complete control
[21] = Preemergence, 125 g ai/ha, scale 0 to 100, 0 no effect, 100 complete control
[22] = Preemergence, 250 g ai/ha, scale 0 to 100, 0 no effect, 100 complete control
[23] = Postemergence, 125 g ai/ha, scale 0 to 100, 0 no effect, 100 complete control

CCc1nn(-c2ccc(C(F)(F)F)c(F)c2)nc1Oc1ccnc(C(F)(F)F)c1 [Compound 183]
Plant response rating, Chickweed [1, 9]: 75
Plant response rating, Chickweed [1, 10]: 75
Plant response rating, Chickweed [1, 11]: 80
Plant response rating, Chickweed ([1]; 250 g ai/ha, scale 0 to 100): 98
Plant response rating, Velvetleaf [2, 12]: 100
Velvetleaf plant response rating [2, 13]: 100
Plant response rating, Velvetleaf [2, 14]: 70
Plant response rating, Velvetleaf [2, 15]: 80
Plant response rating, Barnyardgrass (0 to 100 scale, 0 is no effect, 100 is complete control) [3]: 30
Plant response rating, Morningglory [4, 12]: 100
Morningglory plant response rating [4, 13]: 100
Plant response rating, Morningglory [4, 14]: 70
Plant response rating, Morningglory [4, 15]: 90
Plant response rating, Barnyardgrass [5, 12]: 80
Barnyardgrass plant response rating [5, 13]: 90
Plant response rating, Barnyardgrass [5, 14]: 90
Plant response rating, Barnyardgrass [5, 15]: 100
Plant response rating, Corn (corn (Zea mays); [16]): 10
Plant response rating, Corn (corn (Zea mays); [17]): 20
Plant response rating, Corn (corn (Zea mays); [18]): 30
Plant response rating, Corn (corn (Zea mays); [19]): 15
Plant response rating, Corn (corn (Zea mays); [20]): 15
Plant response rating, Corn (corn (Zea mays); [21]): 40
Plant response rating, Corn (corn (Zea mays); [22]): 40
Plant response rating, Soybean (soybean (Glycine max); [16]): 35
Plant response rating, Soybean (soybean (Glycine max); [17]): 55
Plant response rating, Soybean (soybean (Glycine max); [23]): 55
Plant response rating, Soybean (soybean (Glycine max); Postemergence, 250 g ai/ha, scale 0 to 100 (0 no effect, 100 complete control)): 90
Plant response rating, Soybean (soybean (Glycine max); [19]): 5
Plant response rating, Soybean (soybean (Glycine max); [20]): 5
Plant response rating, Soybean (soybean (Glycine max); [21]): 10
Plant response rating, Soybean (soybean (Glycine max); [22]): 30
Plant response rating, Foxtail, Giant [6, 16]: 45
Plant response rating, Foxtail, Giant [6, 17]: 45
Plant response rating, Foxtail, Giant [6, 23]: 65
Plant response rating, Foxtail, Giant [6, 18]: 85
Plant response rating, Foxtail, Giant [6, 19]: 100
Plant response rating, Foxtail, Giant [6, 20]: 100
Plant response rating, Foxtail, Giant [6, 21]: 100
Plant response rating, Foxtail, Giant [6, 22]: 100
Plant response rating, Kochia (kochia (Kochia scoparia); [9]): 90
Plant response rating, Kochia (kochia (Kochia scoparia); [10]): 90
Plant response rating, Kochia (kochia (Kochia scoparia); [11]): 90
Plant response rating, Kochia (kochia (Kochia scoparia); 250 g ai/ha, scale 0 to 100 (0 no effect, 100 complete control)): 95
Plant response rating, Ducksalad (0 to 100 scale, 0 is no effect, 100 is complete control) [7]: 65
Plant response rating, Crabgrass, Large [8, 16]: 25
Plant response rating, Crabgrass, Large [8, 17]: 35
Plant response rating, Crabgrass, Large [8, 23]: 35
Plant response rating, Crabgrass, Large [8, 18]: 85
Plant response rating, Crabgrass, Large [8, 19]: 100
Plant response rating, Crabgrass, Large [8, 20]: 100
Plant response rating, Crabgrass, Large [8, 21]: 100
Plant response rating, Crabgrass, Large [8, 22]: 100
